Test results taken from PMC9116242 (Journal of Enzyme Inhibition and Medicinal Chemistry, 2022).

Key:
[1] = In vivo PET-CT imaging with [11C]5f in mice; details: blocker 1.0 mg/kg 5 min before the radiotracer, compared with baseline
BV-2 cells = test: Cytotoxicity on BV-2 cells, MTT assay; format: cell-based; details: 5 and 10 μM
[2] = system: NO production in LPS-induced BV-2 cells; test: NO release in BV-2 cells and LPS-stimulated BV-2 cells, Griess reaction; format: cell-based; details: 5 and 10 μM
[3] = system: TNF-α production in LPS-induced BV-2 cells; test: LPS-induced TNF-α production in BV-2 cells, ELISA; format: cell-based; details: for Level of TNF-α production: BV-2 cells, 1.0 μg/mL LPS; for inhibition at 5 µM: Mus musculus, BV-2, read-out: Inhibitory rate of TNF-α production
PC12 cells = test: Neuroprotective effect against Aβ1-42-induced PC12 cell injury, MTT assay; format: cell-based; details: 25 μM Aβ1-42 for 48 h, compound at 5 and 10 μM
[4] = PAMPA-BBB permeation assay; details: Table 3
huMAO-B = molecular target: T1, huMAO-B (Homo sapiens, UniProt P27338); test: Kinetic study against huMAO-B, Lineweaver-Burk plots; format: biochemical; details: 5a at 0.15, 0.3 and 0.6 μM
T1 sequence (P27338 1-520): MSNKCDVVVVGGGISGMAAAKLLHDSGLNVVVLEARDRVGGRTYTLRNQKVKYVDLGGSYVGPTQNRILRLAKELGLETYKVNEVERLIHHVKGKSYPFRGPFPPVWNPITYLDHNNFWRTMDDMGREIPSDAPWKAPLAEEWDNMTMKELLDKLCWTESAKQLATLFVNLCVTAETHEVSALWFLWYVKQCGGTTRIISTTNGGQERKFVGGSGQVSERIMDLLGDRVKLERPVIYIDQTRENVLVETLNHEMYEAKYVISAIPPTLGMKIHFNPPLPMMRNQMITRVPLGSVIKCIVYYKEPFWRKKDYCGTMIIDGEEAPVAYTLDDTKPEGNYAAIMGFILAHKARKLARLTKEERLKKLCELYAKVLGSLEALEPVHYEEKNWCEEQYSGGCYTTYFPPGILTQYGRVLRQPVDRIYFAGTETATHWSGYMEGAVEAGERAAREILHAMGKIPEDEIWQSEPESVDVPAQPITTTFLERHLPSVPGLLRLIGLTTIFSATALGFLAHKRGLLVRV

Structure (SMILES)	Radio-uptake decrease of [11C]5f in the brain after pre-treatment (blocking) [1] [%]	Cytotoxicity on BV-2 cells (cell viability) (BV-2 cells)	Effect on release of NO in BV-2 cells without LPS [2]	Level of TNF-α production ([3]; compound at 5 μM) [pg/mL]	Level of TNF-α production ([3]; compound at 10 μM) [pg/mL]	inhibition at 5 µM [3] [%]	Cell viability, Aβ1-42-induced PC12 cell injury (in words) (PC12 cells)	Pe [4] [×10⁻⁶ cm/s]	Type of MAO-B inhibition (huMAO-B)
CCN(C)C(=O)Oc1cccc([C@H](C)N(C)C)c1 [Rivastigmine, reference compound]	~35	–	–	–	–	–	–	–	–
COc1cc(/C=C/C(=O)N2CCC(Cc3ccccc3)CC2)ccc1OC1CCCCC1 [Compound 5d, (E)-1-(4-benzylpiperidin-1-yl)-3-(4-(cyclohexyloxy)-3-methoxyphenyl)prop-2-en-1-one]	–	non-toxic	did not produce an effect on the release of NO	780	460	54.1	gradually increased in a dose-dependent manner	18.2	–
COc1cc(/C=C/C(=O)N2CCc3ccccc3C2)ccc1OC1CCCCC1 [Compound 5h, (E)-3-(4-(cyclohexyloxy)-3-methoxyphenyl)-1-(3,4-dihydroisoquinolin-2(1H)-yl)prop-2-en-1-one]	–	non-toxic	did not produce an effect on the release of NO	740	435	56.5	gradually increased in a dose-dependent manner	16.7	–
C#CCOc1ccc(/C=C/C(=O)N2CCc3ccccc3C2)cc1OC [Compound 5e, (E)-1-(3,4-dihydroisoquinolin-2(1H)-yl)-3-(3-methoxy-4-(prop-2-yn-1-yloxy)phenyl)prop-2-en-1-one]	–	non-toxic	did not produce an effect on the release of NO	805	550	52.6	gradually increased in a dose-dependent manner	12.5	–
COc1ccc(/C=C/C(=O)N2CCc3ccccc3C2)cc1OC [Compound 5f, (E)-1-(3,4-dihydroisoquinolin-2(1H)-yl)-3-(3,4-dimethoxyphenyl)prop-2-en-1-one]	~35	non-toxic	did not produce an effect on the release of NO	750	455	55.9	gradually increased in a dose-dependent manner	20.4	–
C#CCOc1ccc(/C=C/C(=O)N2CCC(Cc3ccccc3)CC2)cc1OC [Compound 5a, (E)-1-(4-benzylpiperidin-1-yl)-3-(3-methoxy-4-(prop-2-yn-1-yloxy)phenyl)prop-2-en-1-one]	–	non-toxic	did not produce an effect on the release of NO	820	520	51.7	–	14.7	competitive
